Results: US7294496B1, “Cloned human lysophospholipase” (The Regents of the University of California, priority 2000, dated 2007)
Where two headings read alike, the source gives them in different places.

Experiments:
mouse LysoPLA = mouse LysoPLA (Mus musculus, UniProt P97823); assay: Inhibition of mouse LysoPLA; type: biochemical
Experimental: Various concentrations of each inhibitor (BioMol) were prepared in DMSO. 5 μl of each inhibitor was added to 480 μl of LysoPC substrate (125 μM Ly-soPC in the assay buffer). Enzyme (either mouse or human PLA) was added to the substrate-inhibitor mixture to start the reaction, which was incubated at 40° C. for 30 min. Control experiments were performed with the same amount of enzyme with 5 μl DMSO in the incubation mixture. The reversibility of the inhibition was tested by pre-incubation of the enzyme in the presence or absence of the inhibitor, followed by overnight dialysis in the assay buffer. The recovery of the enzyme activity as a function of time was then followed. Each data point represents an average of duplicates.

[1] = biological target: T1, human recombinant LysoPLA (Homo sapiens, UniProt O75608, F152L); type: biochemical
T1 construct: made in house; host or cells: E. coli BL21(DE3)

[2] = mouse enzyme, 125 μM LysoPC, similar results as human enzyme

Sequence of mouse LysoPLA (P97823 whole entry): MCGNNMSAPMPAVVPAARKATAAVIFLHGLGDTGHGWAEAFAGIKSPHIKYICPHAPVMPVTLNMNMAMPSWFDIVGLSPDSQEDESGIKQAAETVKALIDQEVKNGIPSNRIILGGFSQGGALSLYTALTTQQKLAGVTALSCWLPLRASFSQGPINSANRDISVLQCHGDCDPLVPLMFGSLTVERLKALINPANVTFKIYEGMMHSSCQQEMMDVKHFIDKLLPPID
T1 sequence (O75608 whole entry F152L): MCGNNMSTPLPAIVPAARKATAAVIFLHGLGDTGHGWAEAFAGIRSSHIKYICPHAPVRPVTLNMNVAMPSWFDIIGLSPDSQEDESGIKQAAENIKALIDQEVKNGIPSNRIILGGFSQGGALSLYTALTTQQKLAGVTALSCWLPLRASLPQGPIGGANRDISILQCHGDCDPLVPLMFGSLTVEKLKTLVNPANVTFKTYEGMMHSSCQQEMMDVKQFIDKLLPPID

| SMILES | inhibition of LysoPLA activity (in words) (mouse LysoPLA; [2]) | inhibition of LysoPLA activity (in words) ([1]; human enzyme, 125 μM LysoPC) | inhibition of LysoPLA activity (in words) (mouse LysoPLA) | inhibition of LysoPLA activity (in words) [1] |
| --- | --- | --- | --- | --- |
| O=C1O/C(=C/Br)CCC1c1cccc2ccccc12 (stereo not drawn) [BEL, bromoenol lactone] | neither of them inhibited the LysoPLA activity well | neither of them inhibited the LysoPLA activity well |  |  |
| CCCCCCCCCCCCCCCCOC[C@@H](O)COP(=O)([O-])OCC[N+](C)(C)C [LysoPAF] |  |  | not a good inhibitor | not a good inhibitor |
| CCCCCCCCCCCCCCCC(=O)C(F)(F)F [PACOCF3, palmitoyl tri£uoromethyl ketone] | neither of them inhibited the LysoPLA activity well | neither of them inhibited the LysoPLA activity well |  |  |
